{
  "source": "ChEMBL document CHEMBL4000191",
  "about": "“Antileishmanial evaluation of clubbed bis(indolyl)-pyridine derivatives: One-pot synthesis, in vitro biological evaluations and in silico ADME prediction” (Bioorg Med Chem Lett, 2017)",
  "key": {"[1]": {"system": "Leishmania donovani", "assay": "Antileishmanial activity against Leishmania donovani NHOM/IN/80/DD8 promastigotes after 72 hrs by MTT assay", "format": "functional", "settings": "NHOM/IN/80/DD8, 72 h"}, "[2]": {"system": "Pseudomonas aeruginosa", "assay": "Antibacterial activity against Pseudomonas aeruginosa NCIM 2036 by standard agar method", "format": "functional"}, "[3]": {"system": "Escherichia coli", "assay": "Antibacterial activity against Escherichia coli NCIM 2256 by standard agar method", "format": "functional"}, "[4]": {"system": "Bacillus subtilis", "assay": "Antibacterial activity against Bacillus subtilis NCIM 2063 by standard agar method", "format": "functional"}, "[5]": {"system": "Staphylococcus aureus", "assay": "Antibacterial activity against Staphylococcus aureus NCIM 2901 by standard agar method", "format": "functional"}, "[6]": {"system": "HeLa", "assay": "Cytotoxic activity against human HeLa cells up to 300 ug/mL after 72 hrs by MTT assay", "format": "cell-based"}, "[7]": {"system": "Leishmania chagasi", "assay": "Antileishmanial activity against Leishmania donovani chagasi MHOM/BR/74/PP75 promastigotes after 72 hrs by phase contrast microscopic method", "format": "functional", "settings": "MHOM/BR/74/PP75, 72 h"}, "[8]": {"system": "Leishmania donovani", "assay": "Antileishmanial activity against Leishmania donovani", "format": "functional"}},
  "data": [
    {"smiles": "Clc1ccc(-c2cc(-c3c[nH]c4ccccc34)nc(-c3c[nH]c4ccccc34)c2)cc1", "values": [
      {"measurement": "IC50", "setting": "[1]", "value": 166, "unit": "µM"},
      {"measurement": "MIC", "setting": "[2]", "value": 115, "unit": "µg/mL"},
      {"measurement": "MIC", "setting": "[3]", "value": 90.5, "unit": "µg/mL"},
      {"measurement": "MIC", "setting": "[4]", "value": 77.2, "unit": "µg/mL"},
      {"measurement": "MIC", "setting": "[5]", "value": 183, "unit": "µg/mL"}
    ]},
    {"smiles": "O=C(O)c1ccccc1-c1cc(-c2c[nH]c3ccccc23)nc(-c2c[nH]c3ccccc23)c1", "values": [
      {"measurement": "IC50", "setting": "[1]", "value": 118, "unit": "µM"},
      {"measurement": "MIC", "setting": "[2]", "value": 122, "unit": "µg/mL"},
      {"measurement": "MIC", "setting": "[3]", "value": 71.5, "unit": "µg/mL"},
      {"measurement": "MIC", "setting": "[4]", "value": 70.4, "unit": "µg/mL"},
      {"measurement": "MIC", "setting": "[5]", "value": 129, "unit": "µg/mL"}
    ]},
    {"smiles": "COc1cc(-c2cc(-c3c[nH]c4ccccc34)nc(-c3c[nH]c4ccccc34)c2)cc(OC)c1OC", "values": [
      {"measurement": "IC50", "setting": "[1]", "value": 136, "unit": "µM"},
      {"measurement": "MIC", "setting": "[2]", "value": 197, "unit": "µg/mL"},
      {"measurement": "MIC", "setting": "[3]", "value": 192, "unit": "µg/mL"},
      {"measurement": "MIC", "setting": "[4]", "value": 79.9, "unit": "µg/mL"},
      {"measurement": "MIC", "setting": "[5]", "value": 179, "unit": "µg/mL"}
    ]},
    {"smiles": "COc1ccc(-c2cc(-c3c[nH]c4ccccc34)nc(-c3c[nH]c4ccccc34)c2)cc1OC", "values": [
      {"measurement": "IC50", "setting": "[1]", "value": 192, "unit": "µM"},
      {"measurement": "MIC", "setting": "[2]", "value": 180, "unit": "µg/mL"},
      {"measurement": "MIC", "setting": "[3]", "value": 191, "unit": "µg/mL"},
      {"measurement": "MIC", "setting": "[4]", "value": 55.4, "unit": "µg/mL"},
      {"measurement": "MIC", "setting": "[5]", "value": 194, "unit": "µg/mL"}
    ]},
    {"smiles": "c1ccc(-c2cc(-c3c[nH]c4ccccc34)nc(-c3c[nH]c4ccccc34)c2)cc1", "values": [
      {"measurement": "IC50", "setting": "[1]", "value": 142, "unit": "µM"},
      {"measurement": "MIC", "setting": "[2]", "value": 149, "unit": "µg/mL"},
      {"measurement": "MIC", "setting": "[3]", "value": 55.4, "unit": "µg/mL"},
      {"measurement": "MIC", "setting": "[4]", "value": 89.6, "unit": "µg/mL"},
      {"measurement": "MIC", "setting": "[5]", "value": 158, "unit": "µg/mL"}
    ]},
    {"smiles": "COc1ccc(-c2cc(-c3c[nH]c4ccccc34)nc(-c3c[nH]c4ccccc34)c2)cc1", "values": [
      {"measurement": "IC50", "setting": "[1]", "value": 99.5, "unit": "µM"},
      {"measurement": "MIC", "setting": "[2]", "value": 120, "unit": "µg/mL"},
      {"measurement": "MIC", "setting": "[3]", "value": 46.6, "unit": "µg/mL"},
      {"measurement": "MIC", "setting": "[4]", "value": 81.5, "unit": "µg/mL"},
      {"measurement": "MIC", "setting": "[5]", "value": 165, "unit": "µg/mL"},
      {"measurement": "Activity", "setting": "[6]", "value": "Non-Toxic"}
    ]},
    {"smiles": "Oc1ccc(-c2cc(-c3c[nH]c4ccccc34)nc(-c3c[nH]c4ccccc34)c2)cc1O", "values": [
      {"measurement": "IC50", "setting": "[1]", "value": 287, "unit": "µM"},
      {"measurement": "MIC", "setting": "[2]", "value": 224, "unit": "µg/mL"},
      {"measurement": "MIC", "setting": "[3]", "value": 158, "unit": "µg/mL"},
      {"measurement": "MIC", "setting": "[4]", "value": 121, "unit": "µg/mL"},
      {"measurement": "MIC", "setting": "[5]", "value": 191, "unit": "µg/mL"}
    ]},
    {"smiles": "Clc1cccc(Cl)c1-c1cc(-c2c[nH]c3ccccc23)nc(-c2c[nH]c3ccccc23)c1", "values": [
      {"measurement": "IC50", "setting": "[1]", "value": 102, "unit": "µM"},
      {"measurement": "MIC", "setting": "[2]", "value": 175, "unit": "µg/mL"},
      {"measurement": "MIC", "setting": "[3]", "value": 87.5, "unit": "µg/mL"},
      {"measurement": "MIC", "setting": "[4]", "value": 96.5, "unit": "µg/mL"},
      {"measurement": "MIC", "setting": "[5]", "value": 178, "unit": "µg/mL"}
    ]},
    {"smiles": "COC(=O)[C@@H]1C[C@@]23CCCN4CC[C@@]5(c6ccccc6N(C(=O)OC)[C@]15CC2)[C@H]43", "values": [
      {"measurement": "IC50", "setting": "[7]", "value": 60.9, "unit": "µM"}
    ]},
    {"smiles": "COc1ccc(OC)c(-c2cc(-c3c[nH]c4ccccc34)nc(-c3c[nH]c4ccccc34)c2)c1", "values": [
      {"measurement": "IC50", "setting": "[1]", "value": 260, "unit": "µM"},
      {"measurement": "MIC", "setting": "[2]", "value": 182, "unit": "µg/mL"},
      {"measurement": "MIC", "setting": "[3]", "value": 133, "unit": "µg/mL"},
      {"measurement": "MIC", "setting": "[4]", "value": 79.5, "unit": "µg/mL"},
      {"measurement": "MIC", "setting": "[5]", "value": 158, "unit": "µg/mL"}
    ]},
    {"smiles": "CN(C)c1ccc(-c2cc(-c3c[nH]c4ccccc34)nc(-c3c[nH]c4ccccc34)c2)cc1", "values": [
      {"measurement": "IC50", "setting": "[1]", "value": 112, "unit": "µM"},
      {"measurement": "MIC", "setting": "[2]", "value": 149, "unit": "µg/mL"},
      {"measurement": "MIC", "setting": "[3]", "value": 95.9, "unit": "µg/mL"},
      {"measurement": "MIC", "setting": "[4]", "value": 103, "unit": "µg/mL"},
      {"measurement": "MIC", "setting": "[5]", "value": 229, "unit": "µg/mL"}
    ]},
    {"smiles": "COc1ccc(-c2cc(-c3c[nH]c4ccccc34)nc(-c3c[nH]c4ccccc34)c2)c(OC)c1", "values": [
      {"measurement": "IC50", "setting": "[1]", "value": 600, "unit": "µM"},
      {"measurement": "MIC", "setting": "[2]", "value": 188, "unit": "µg/mL"},
      {"measurement": "MIC", "setting": "[3]", "value": 52.2, "unit": "µg/mL"},
      {"measurement": "MIC", "setting": "[4]", "value": 88.7, "unit": "µg/mL"},
      {"measurement": "MIC", "setting": "[5]", "value": 123, "unit": "µg/mL"}
    ]},
    {"smiles": "Clc1ccccc1-c1cc(-c2c[nH]c3ccccc23)nc(-c2c[nH]c3ccccc23)c1", "values": [
      {"measurement": "IC50", "setting": "[1]", "value": 123, "unit": "µM"},
      {"measurement": "MIC", "setting": "[2]", "value": 150, "unit": "µg/mL"},
      {"measurement": "MIC", "setting": "[3]", "value": 41.4, "unit": "µg/mL"},
      {"measurement": "MIC", "setting": "[4]", "value": 64.8, "unit": "µg/mL"},
      {"measurement": "MIC", "setting": "[5]", "value": 166, "unit": "µg/mL"},
      {"measurement": "Activity", "setting": "[6]", "value": "Non-Toxic"}
    ]},
    {"smiles": "COc1cc(-c2cc(-c3c[nH]c4ccccc34)nc(-c3c[nH]c4ccccc34)c2)ccc1O", "values": [
      {"measurement": "IC50", "setting": "[1]", "value": 169, "unit": "µM"},
      {"measurement": "MIC", "setting": "[2]", "value": 165, "unit": "µg/mL"},
      {"measurement": "MIC", "setting": "[3]", "value": 129, "unit": "µg/mL"},
      {"measurement": "MIC", "setting": "[4]", "value": 95.7, "unit": "µg/mL"},
      {"measurement": "MIC", "setting": "[5]", "value": 221, "unit": "µg/mL"}
    ]},
    {"smiles": "CC1(C)S[C@@H]2[C@H](NC(=O)[C@H](N)c3ccccc3)C(=O)N2[C@H]1C(=O)O", "note": "[AMPICILLIN]", "values": [
      {"measurement": "MIC", "setting": "[2]", "value": 100, "unit": "µg/mL"},
      {"measurement": "MIC", "setting": "[3]", "value": 100, "unit": "µg/mL"},
      {"measurement": "MIC", "setting": "[4]", "value": 250, "unit": "µg/mL"},
      {"measurement": "MIC", "setting": "[5]", "value": 250, "unit": "µg/mL"}
    ]},
    {"smiles": "O=C(O)c1cn(C2CC2)c2cc(N3CCNCC3)c(F)cc2c1=O", "note": "[CIPROFLOXACIN]", "values": [
      {"measurement": "MIC", "setting": "[2]", "value": 50, "unit": "µg/mL"},
      {"measurement": "MIC", "setting": "[3]", "value": 25, "unit": "µg/mL"}
    ]},
    {"smiles": "C[n+]1c2ccccc2cc2[n-]c3ccccc3c21", "note": "[CRYPTOLEPINE]", "values": [
      {"measurement": "IC50", "setting": "[8]", "value": 1.6, "unit": "µM"}
    ]}
  ]
}
